What follows are molecules tested against urease (Canavalia ensiformis, UniProt P07374) (assay: urease inhibition, ammonia production by indophenol method).
Format: biochemical

urease, sequence (P07374 whole entry, looked up): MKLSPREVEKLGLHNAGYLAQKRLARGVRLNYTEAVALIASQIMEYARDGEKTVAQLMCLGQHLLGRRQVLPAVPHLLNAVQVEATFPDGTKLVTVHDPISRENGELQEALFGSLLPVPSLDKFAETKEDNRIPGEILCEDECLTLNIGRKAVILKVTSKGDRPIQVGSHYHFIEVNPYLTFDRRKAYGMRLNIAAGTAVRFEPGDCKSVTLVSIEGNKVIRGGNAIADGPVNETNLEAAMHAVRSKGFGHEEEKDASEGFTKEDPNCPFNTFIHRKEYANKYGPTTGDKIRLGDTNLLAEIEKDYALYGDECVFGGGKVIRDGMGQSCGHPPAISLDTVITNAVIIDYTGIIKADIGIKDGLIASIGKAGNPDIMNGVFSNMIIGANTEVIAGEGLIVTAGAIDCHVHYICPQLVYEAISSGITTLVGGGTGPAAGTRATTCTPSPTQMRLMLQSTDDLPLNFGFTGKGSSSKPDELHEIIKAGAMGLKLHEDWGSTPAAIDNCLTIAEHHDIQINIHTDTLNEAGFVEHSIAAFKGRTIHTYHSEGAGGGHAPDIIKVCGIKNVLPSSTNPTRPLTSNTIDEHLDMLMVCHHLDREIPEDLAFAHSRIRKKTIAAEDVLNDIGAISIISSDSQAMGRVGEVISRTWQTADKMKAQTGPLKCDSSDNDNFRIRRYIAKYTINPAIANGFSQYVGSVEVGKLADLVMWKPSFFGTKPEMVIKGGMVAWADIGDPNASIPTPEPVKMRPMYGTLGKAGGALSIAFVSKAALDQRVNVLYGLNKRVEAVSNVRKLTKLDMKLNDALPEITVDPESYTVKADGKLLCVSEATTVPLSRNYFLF

In order of falling IC50:
1. C=CC1(C)CCC2C(=CCC3C2(C)CC(O)C(O)C3(C)CO)C1 (stereo not drawn) [compound 14, aglycon of virescenoside A]  139 µM
2. C=CC1(C)CCC2=C(CCC3C2(C)CCC(O)C3(C)CO)C1 (stereo not drawn) [compound 15, aglycon of virescenoside B]  125 µM
3. NC(N)=S [Thiourea, reference compound]  23 µM

Reference: PMC6891331, “Virescenosides from the Holothurian-Associated Fungus Acremonium striatisporum Kmm 4401” (Marine Drugs, 2019)
